In US4753953A, “Pyridonecarboxylic acid derivatives and antibacterial pharmaceutical compositions thereof” (priority 1985, dated 1988):
Converted amounts (≈) assume the structure as drawn. Where two headings read alike, the source gives them in different places.

Tests used:
Assay in all cases: MIC, in vitro antibacterial activity (standard strains)
P. aeruginosa IFO 12689 = format: cell-based, Pseudomonas aeruginosa; conditions: Pseudomonas aeruginosa, IFO12689
P. maltophilia GIFU 2491 = format: cell-based; conditions: Stenotrophomonas maltophilia, GIFU2491; 10^6 cells/ml; Gram -; read-out: MIC
Pst. micros UPI 5464-1 = format: cell-based; conditions: Parvimonas micra, UPI54641; 10^6 cells/ml; Gram +; read-out: MIC
E. coli ML 4707 = format: cell-based, Escherichia coli; conditions: Escherichia coli, ML4707, 10^6 cells/ml; Gram -; Table 1; read-out: MIC
F. necrophorum S-45 = format: cell-based; conditions: Fusobacterium necrophorum, S45; 10^6 cells/ml; Gram -; read-out: MIC
[1] = test system: Veillonella parvula KYA 10790; format: cell-based; conditions: Veillonella parvula, KYA10790; 10^6 cells/ml; Gram -; read-out: MIC
E. limosum KYA 8486 = format: cell-based; conditions: Eubacterium limosum, KYA8486; 10^6 cells/ml; Gram +; read-out: MIC
[2] = test system: Bacillus subtilis PCI 219; format: cell-based; conditions: Bacillus subtilis, PCI219; 10^6 cells/ml; Gram +; read-out: MIC
S. pneumoniae IID 552 = format: cell-based; conditions: Streptococcus pneumoniae, IID552; 10^6 cells/ml; Gram +; read-out: MIC
[3] = test system: Clostridium difficile I-E; format: cell-based; conditions: Clostridioides difficile; 10^6 cells/ml; Gram +
[4] = test system: Peptococcus magnus KY 017; format: cell-based; conditions: Finegoldia magna, KY017; 10^6 cells/ml; Gram +; read-out: MIC
B. vulgatus KYA 29327 = format: cell-based; conditions: Phocaeicola vulgatus, KYA29327; 10^6 cells/ml; Gram -; read-out: MIC
[5] = test system: S. aureus IID 670 (Terajima); format: cell-based, Staphylococcus aureus; conditions: Staphylococcus aureus, IID670; 10^6 cells/ml; Gram +; read-out: MIC
[6] = test system: Propionibacterium acens 11828; format: cell-based; conditions: Propionibacterium, 11828; 10^6 cells/ml; Gram +; read-out: MIC
[7] = test system: Acinetobacter anitratus IID 876; format: cell-based; conditions: Acinetobacter calcoaceticus, IID876; 10^6 cells/ml; Gram -; read-out: MIC
[8] = test system: Escherichia coli NIHJ JC-2; format: cell-based; conditions: Escherichia coli, NIHJJC2; 10^6 cells/ml; Gram -; read-out: MIC
K. pneumoniae 1-220S = format: cell-based, Klebsiella pneumoniae; conditions: Klebsiella pneumoniae, 1220S; 10^6 cells/ml; Gram -; read-out: MIC
[9] = 10^6 cells/ml, Gram -, read-out: MIC

| Compound | MIC (P. aeruginosa IFO 12689; [9]) | MIC (P. maltophilia GIFU 2491) | MIC (Pst. micros UPI 5464-1) | MIC (E. coli ML 4707) | MIC (F. necrophorum S-45) | MIC [1] | MIC (E. limosum KYA 8486) | MIC [2] | MIC (S. pneumoniae IID 552) | MIC [3] | MIC [4] | MIC (B. vulgatus KYA 29327) | MIC [5] | MIC [6] | MIC [7] | MIC [8] | MIC (K. pneumoniae 1-220S) | MIC (P. aeruginosa IFO 12689) |
| --- | --- | --- | --- | --- | --- | --- | --- | --- | --- | --- | --- | --- | --- | --- | --- | --- | --- | --- |
| CCn1cc(C(=O)O)c(=O)c2cc(F)c(N3C[C@@H](N)[C@@H](C)C3)c(Cl)c21 (relative stereo) [Example 23, 7-(cis-3-Amino-4-methyl-1-pyrrolidinyl)-8-chloro-1-ethyl-6-fluoro-1,4-dihydro-4-oxo-3-quinolinecarboxylic acid] | 1.56 µg/mL (≈ 4.24 µM) | 0.39 µg/mL (≈ 1.06 µM) | 0.78 µg/mL (≈ 2.12 µM) | 0.05 µg/mL (≈ 0.136 µM) | 1.56 µg/mL (≈ 4.24 µM) | 0.78 µg/mL (≈ 2.12 µM) | 6.25 µg/mL (≈ 17 µM) | 0.05 µg/mL (≈ 0.136 µM) | 0.78 µg/mL (≈ 2.12 µM) | 6.25 µg/mL | 0.78 µg/mL (≈ 2.12 µM) | 1.56 µg/mL (≈ 4.24 µM) | 0.2 µg/mL (≈ 0.544 µM) | 12.5 µg/mL (≈ 34 µM) | 0.39 µg/mL (≈ 1.06 µM) | 0.025 µg/mL (≈ 0.068 µM) | 0.1 µg/mL (≈ 0.272 µM) |  |
| C[C@H]1CN(c2c(F)cc3c(=O)c(C(=O)O)cn(CCF)c3c2F)C[C@H]1N (relative stereo) [Example 25, 7-(cis-b 3-Amino-4-methyl-1-pyrrolidinyl)-6,8-difluoro-1-(2-fluoroethyl)-1,4-dihydro-4-oxo-3-quinolinecarboxylic acid] | 1.56 µg/mL (≈ 4.22 µM) | 1.56 µg/mL (≈ 4.22 µM) | 0.78 µg/mL (≈ 2.11 µM) | 0.05 µg/mL (≈ 0.135 µM) | 3.13 µg/mL (≈ 8.47 µM) | 0.78 µg/mL (≈ 2.11 µM) | 6.25 µg/mL (≈ 16.9 µM) | 0.1 µg/mL (≈ 0.271 µM) | 0.78 µg/mL (≈ 2.11 µM) | 6.25 µg/mL | 1.56 µg/mL (≈ 4.22 µM) | 6.25 µg/mL (≈ 16.9 µM) | 0.39 µg/mL (≈ 1.06 µM) | 25 µg/mL (≈ 67.7 µM) | 1.56 µg/mL (≈ 4.22 µM) | 0.05 µg/mL (≈ 0.135 µM) | 0.2 µg/mL (≈ 0.542 µM) |  |
| C[C@H]1CN(c2c(F)cc3c(=O)c(C(=O)O)cn(CCF)c3c2Cl)C[C@H]1N (relative stereo) [Example 27, 7-(cis-3-Amino-4-methyl-1-pyrrolidinyl)-8-chloro-6-fluoro-1-(2-fluoroethyl)-1,4-dihydro-4-oxo-3-quinolinecarboxylic acid] |  | 1.56 µg/mL (≈ 4.04 µM) | 0.39 µg/mL (≈ 1.01 µM) | 0.05 µg/mL (≈ 0.13 µM) | 1.56 µg/mL (≈ 4.04 µM) | 0.39 µg/mL (≈ 1.01 µM) | 6.25 µg/mL (≈ 16.2 µM) | 0.1 µg/mL (≈ 0.259 µM) | 0.78 µg/mL (≈ 2.02 µM) | 6.25 µg/mL | 0.78 µg/mL (≈ 2.02 µM) | 3.13 µg/mL (≈ 8.11 µM) | 0.39 µg/mL (≈ 1.01 µM) | 12.5 µg/mL (≈ 32.4 µM) | 1.56 µg/mL (≈ 4.04 µM) | 0.05 µg/mL (≈ 0.13 µM) | 0.2 µg/mL (≈ 0.518 µM) | 3.13 µg/mL (≈ 8.11 µM) |
| CC1COc2c(N3C[C@@H](N)[C@@H](C)C3)c(F)cc3c(=O)c(C(=O)O)cn1c23.Cl (relative stereo) [Example 29, 10-(cis-3-Amino-4-methyl-1-pyrrolidinyl)-9-fluoro-2,3-dihydro-3-methyl-7-oxo-7H-pyrido[1,2,3-de][1,4]benzoxazine-6-carboxylic acid hydrochloride] | 1.56 µg/mL | 1.56 µg/mL | 0.39 µg/mL | 0.05 µg/mL | 0.78 µg/mL | 0.39 µg/mL | 6.25 µg/mL | 0.05 µg/mL | 0.39 µg/mL | 6.25 µg/mL | 0.78 µg/mL | 6.25 µg/mL | 0.39 µg/mL | 12.5 µg/mL | 1.56 µg/mL | 0.025 µg/mL | 0.2 µg/mL |  |
| CC1CN(c2c(F)cc3c(=O)c(C(=O)O)cn(C4CC4)c3c2Cl)CC1CN (stereo not shown) [Example 1, 7-(3-Aminomethyl-4-methyl-1-pyrrolidinyl)-8-chloro-1-cyclopropyl-6-fluoro-1,4-dihydro-4-oxo-3-quinolinecarboxylic acid] | 0.78 µg/mL (≈ 1.98 µM) | 0.1 µg/mL (≈ 0.254 µM) | 0.39 µg/mL (≈ 0.99 µM) | 0.025 µg/mL (≈ 0.0635 µM) | 0.1 µg/mL (≈ 0.254 µM) | 0.1 µg/mL (≈ 0.254 µM) | 0.39 µg/mL (≈ 0.99 µM) | 0.0125 µg/mL (≈ 0.0317 µM) | 0.0125 µg/mL (≈ 0.0317 µM) |  | ≤ 0.05 µg/mL | 0.1 µg/mL (≈ 0.254 µM) | 0.025 µg/mL (≈ 0.0635 µM) | 0.2 µg/mL (≈ 0.508 µM) | 0.05 µg/mL (≈ 0.127 µM) | 0.025 µg/mL (≈ 0.0635 µM) | 0.05 µg/mL (≈ 0.127 µM) |  |
| CC1CN(c2c(F)cc3c(=O)c(C(=O)O)cn(C4CC4)c3c2Cl)CC1N (stereo not shown) [Example 7, 7-(3-Amino-4-methyl-1-pyrrolidinyl)-8-chloro-1-cyclopropyl-6-fluoro-1,4-dihydro-4-oxo-3-quinolinecarboxylic acid] | 0.39 µg/mL (≈ 1.03 µM) | 0.05 µg/mL (≈ 0.132 µM) | 0.1 µg/mL (≈ 0.263 µM) | 0.0125 µg/mL (≈ 0.0329 µM) | 0.2 µg/mL (≈ 0.527 µM) | 0.1 µg/mL (≈ 0.263 µM) | 0.2 µg/mL (≈ 0.527 µM) | 0.0125 µg/mL (≈ 0.0329 µM) | 0.1 µg/mL (≈ 0.263 µM) |  | 0.05 µg/mL (≈ 0.132 µM) | 0.1 µg/mL (≈ 0.263 µM) | 0.05 µg/mL (≈ 0.132 µM) | 0.78 µg/mL (≈ 2.05 µM) | 0.025 µg/mL (≈ 0.0658 µM) | 0.0063 µg/mL (≈ 0.0166 µM) | 0.05 µg/mL (≈ 0.132 µM) |  |
